These results are taken from patent publication US20070299065A1, “Tetrahydropyran Derivatives as Antidiabetics” (MERCK PATENT GMBH, priority 2004, published 2007).

Each structure is given as a SMILES string.

As usually defined, the melting point is the temperature of the solid-liquid transition.

`CCc1ccn(Cc2ccccc2O[C@@H]2O[C@H](CO)[C@@H](O)[C@H](O)[C@H]2O)c(=O)c1` [compound 1, 4-ethyl-1-[2-((2S,3R,4S,5S,6R)-3,4,5-trihydroxy-6-hydroxymethyltetrahydropyran-2-yloxy)benzyl]-1H-pyridin-2-one] registered a melting point of 174 °C.
